What was measured:
Assay type in all cases: cell-based
mSTING = molecular target: T1, mSTING (Mus musculus, UniProt Q3TBT3); assay: THP1-Dual KI-mSTING reporter assay; parameters: host or cells: THP1-Dual KI-mSTING (from THP1-Dual KO-STING); conditions: THP1-Dual KI-mSTING cells, 24 hours; read-out: Reporter assay EC50 (nM) THP-1 mSTING
T1 sequence (Q3TBT3 1-378): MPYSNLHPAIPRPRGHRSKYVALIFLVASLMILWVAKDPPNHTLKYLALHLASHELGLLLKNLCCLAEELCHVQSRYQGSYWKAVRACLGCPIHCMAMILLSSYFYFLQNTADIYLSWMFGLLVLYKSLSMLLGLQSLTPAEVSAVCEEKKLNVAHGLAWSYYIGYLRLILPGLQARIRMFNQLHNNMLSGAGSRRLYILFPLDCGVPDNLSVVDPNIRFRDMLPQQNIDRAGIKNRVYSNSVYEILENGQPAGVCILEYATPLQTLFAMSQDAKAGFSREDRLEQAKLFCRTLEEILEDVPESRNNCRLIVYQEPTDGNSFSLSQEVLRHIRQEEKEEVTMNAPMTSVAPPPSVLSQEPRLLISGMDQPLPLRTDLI
Procedure: (§1) The activities of the STING agonists to activate human or mouse STING pathways were evaluated in THP-1-Dual™, THP1-Dual™ KI-hSTING-R232, THP1-Dual™ KI-hSTING-H232 Cells and THP1-Dual™ KI-mSTING Cells. THP-1-Dual™ cells contains hSTING-HAQ haplotype and can be used to evaluate the activity of STING agonists by monitoring the activation of NF-κB pathway and the […] (IFN regulatory factor) pathways. THP1-Dual™ KO-STING cells were generated from THP1-Dual™ cells by stable knockout of the endogenous HAQ STING gene. THP1-Dual™ KI-hSTING-R232 cells, THP1-Dual™ KI-hSTING-H232 cells and THP1-Dual™ KI-mSTING cells were generated by transfecting THP1-Dual™ KO-STING cells with hSTING-R232 or hSTING-H232 or mSTING. Stimulating these reporter cells with a STING agonist activates TRF pathway and induces the production of a secreted Lucia luciferase in the cell culture medium, which can be determined using QUANTI-Luc™ reagent.
(§2) THP-1-Dual™, THP1-Dual™ KI-hSTING-R232, THP1-Dual™ KI-hSTING-H232 and THP1-Dual™ KI-mSTING reporter cells were purchased from Invivogen and maintained in manufacture recommended culture medium with required supplemental antibiotics. On the day of assay, the cells were harvested with Accutase and counted by the Vi-CELL Cell Viability Analyzers. Cells were resuspended in HEK blue detection medium and a total of 10000 cells were seeded in each well of a 384-well flat bottom plate. Serial dilutions of STING agonists free drugs (1:3 serial dilution starting from 5 uM) was added into treatment wells. After incubation at 37° C. in a CO2 incubator for 24 hours, 20 μl of cell culture medium per well was transferred into a 384-well white (opaque) plate. 50 μl of QUANTI-Luc™ assay solution was then added to each well and the plate was immediately transferred to an ENVISION® plate reader to measure luminescence (Perkin-Elmer). Relative luminescence readings were converted to fold change of signal using untreated cells as controls. Data was fitted with non-linear regression analysis, using log (agonist) vs. response, variable slope, 4-parameter fit equation using GraphPad Prism. Data was expressed as fold change in signal vs. dose of STING agonist in nM with error bars indicating the Standard Deviation (SD) of the quadruplicates. There result was reported in Table 2 as EC50 (the midpoint of the curve, or concentration at which […] of the maximum effect was observed).

hSTING H232 = hSTING H232 (Homo sapiens, UniProt Q86WV6); assay: THP1-Dual KI-hSTING-H232 reporter assay (IRF pathway, secreted Lucia luciferase); parameters: host or cells: THP1-Dual KI-hSTING-H232 (from THP1-Dual KO-STING); conditions: THP1-Dual KI-hSTING-H232 cells, 24 hours; read-out: Reporter assay EC50 (nM) THP-1-H232
Chain of hSTING H232 (Q86WV6 whole entry): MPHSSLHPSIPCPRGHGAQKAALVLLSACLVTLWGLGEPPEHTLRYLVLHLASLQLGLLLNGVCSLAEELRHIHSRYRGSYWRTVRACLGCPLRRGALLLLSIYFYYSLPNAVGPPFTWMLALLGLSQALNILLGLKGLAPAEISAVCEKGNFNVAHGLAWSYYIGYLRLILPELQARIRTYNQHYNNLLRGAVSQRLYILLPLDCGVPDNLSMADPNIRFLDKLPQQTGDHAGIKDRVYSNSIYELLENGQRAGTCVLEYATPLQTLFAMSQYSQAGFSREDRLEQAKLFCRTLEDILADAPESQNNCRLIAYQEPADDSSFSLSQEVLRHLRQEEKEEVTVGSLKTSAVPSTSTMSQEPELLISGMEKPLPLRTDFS
Procedure: as §1
as §2, with “Serial dilutions of STING agonists free drugs (1:3 serial dilution starting from 5 uM) was added into treatment wells.” left out

hSTING-HAQ haplotype = molecular target: T2, hSTING-HAQ haplotype (Homo sapiens, UniProt Q86WV6, G230A/H232R/R293Q/R71H); assay: THP-1-Dual reporter assay (endogenous hSTING-HAQ); conditions: THP-1-Dual cells (hSTING-HAQ), 24 hours
T2 construct: host or cells: THP-1-Dual
T2 sequence (Q86WV6 whole entry R71H/G230A/H232R/R293Q): as the sequence (Q86WV6 whole entry) above, with R71H, G230A, H232R, R293Q counted along it
Procedure: as §1
as §2, with “Serial dilutions of STING agonists free drugs (1:3 serial dilution starting from 5 uM) was added into treatment wells.” left out

hSTING-R232 = molecular target: T3, hSTING-R232 (Homo sapiens, UniProt Q86WV6, H232R); assay: THP1-Dual KI-hSTING-R232 reporter assay (IRF pathway, secreted Lucia luciferase); conditions: THP1-Dual KI-hSTING-R232 cells, 24 hours; read-out: Reporter assay EC50 (nM) THP-1-R232
T3 construct: host or cells: THP1-Dual KI-hSTING-R232 (from THP1-Dual KO-STING)
T3 sequence (Q86WV6 whole entry H232R): as the sequence (Q86WV6 whole entry) above, with H232R counted along it
Procedure: as §1
as §2, with “Serial dilutions of STING agonists free drugs (1:3 serial dilution starting from 5 uM) was added into treatment wells.” left out

EC50 (mSTING) [nM]	EC50 (hSTING H232) [nM]	EC50 (hSTING-HAQ haplotype) [nM]	EC50 (hSTING-R232) [nM]	Structure (SMILES)
> 150	> 150	50 to 150	50 to 150	CCc1nc(C)oc1C(=O)Nc1nc2cc(C(N)=O)cc(OCCCN3CC4(C3)CN(C(=O)CNC)CCO4)c2n1C/C=C/Cn1c(NC(=O)c2cc(C)nn2CC)nc2cc(C(N)=O)cc(OC)c21 [Compound 18]
> 150	50 to 150	> 150	≤ 50	CCn1nc(C)cc1C(=O)Nc1nc2cc(C(N)=O)cc3c2n1C/C=C/Cn1c(NC(=O)c2cc(C)nn2CC)nc2cc(C(N)=O)cc(c21)OCC1(CNC1)CO3 [Compound 24, (3E)-7,25-bis[(2-ethyl-5-methyl-pyrazole-3-carbonyl)amino]spiro[14,18-dioxa-1,6,8,24-tetrazapentacyclo[17.6.1.16,9.023,26.013,27]heptacosa-3,7,9,11,13 (27), 19 (26), 20,22,24-nonaene-16,3′-azetidine]-11,21-dicarboxamide; 2,2,2-trifluoroacetic acid]
≤ 50	50 to 150	50 to 150	≤ 50	CCc1nc(C)oc1C(=O)Nc1nc2cc(C(N)=O)cc(OCCCN3CC4(C3)CN(C(=O)[C@H](CC(C)C)NC)CCO4)c2n1C/C=C/Cn1c(NC(=O)c2cc(C)nn2CC)nc2cc(C(N)=O)cc(OC)c21 [Compound 19]
≤ 50	≤ 50	≤ 50	≤ 50	CCn1nc(C)cc1C(=O)Nc1nc2cc(C(N)=O)cc(OC)c2n1C/C=C/Cn1c(NC(=O)c2cc(C)nn2CC)nc2cc(C(N)=O)cc(OCCCN3CC4(C3)CN(C(=O)[C@@H](N)CC(C)C)CCO4)c21 [Compound 16]
> 150	> 150	> 150	> 150	CCn1nc(C)cc1C(=O)Nc1nc2cc(C(N)=O)cc(OC)c2n1C/C=C/Cn1c(NC(=O)C23CCC(C)(CC2)CC3)nc2cc(C(N)=O)cc(OCCCN3CC4(CNCCO4)C3)c21 [Compound 12]
> 150	> 150	> 150	> 150	COc1cc(C(N)=O)cc2nc(NC(=O)c3oc(C)nc3C)n(C/C=C/Cn3c(NC(=O)c4oc(C)nc4C)nc4cc(C(N)=O)cc(OCCCN5CCC(c6nnc7n6CCNC7)CC5)c43)c12 [Compound 43, (E)-N-(5-carbamoyl-1-(4-(5-carbamoyl-2-(2,4-dimethyloxazole-5-carboxamido)-7-(3-(4-(5,6,7,8-tetrahydro-[1,2,4]triazolo[4,3-a]pyrazin-3-yl)piperidin-1-yl)propoxy)-1H-benzo[d]imidazol-1-yl)but-2-en-1-yl)-7-methoxy-1H-benzo[d]imidazol-2-yl)-2,4-dimethyloxazole-5-carboxamide]
> 150	> 150	> 150	> 150	CCc1cc(C(=O)Nc2nc3cc(C(N)=O)cc(OCCCN4CC5(CNCCO5)C4)c3n2C/C=C/Cn2c(NC(=O)c3cc(C)nn3CC)nc3cc(C(N)=O)cc(OC)c32)n(C)n1 [Compound 15]
> 150	> 150	> 150	> 150	CCn1nc(C)cc1C(=O)Nc1nc2cc(C(N)=O)cc(OC)c2n1C/C=C/Cn1c(NC(=O)c2cn(C)nc2CN)nc2cc(C(N)=O)cc(OCCCN3CC4(CCCCO4)C3)c21 [Compound 63, (E)-7-(3-(5-oxa-2-azaspiro[3.5]nonan-2-yl)propoxy)-2-(3-(aminomethyl)-1-methyl-1H-pyrazole-4-carboxamido)-1-(4-(5-carbamoyl-2-(1-ethyl-3-methyl-1H-pyrazole-5-carboxamido)-7-methoxy-1H-benzo[d]imidazol-1-yl)but-2-en-1-yl)-1H-benzo[d]imidazole-5-carboxamide]
≤ 50	≤ 50	≤ 50	≤ 50	CCc1nc(C)oc1C(=O)Nc1nc2cc(C(N)=O)cc(OCCCN3CC4(CNCCO4)C3)c2n1C/C=C/Cn1c(NC(=O)c2cc(C)nn2CC)nc2cc(C(N)=O)cc(OC)c21 [Compound 10]
> 150	> 150	> 150	> 150	CCn1nc(C)cc1C(=O)Nc1nc2cc(C(N)=O)cc(OC)c2n1C/C=C/Cn1c(NC(=O)Cc2cc(C)n(C)n2)nc2cc(C(N)=O)cc(OCCCN3CC4(CNCCO4)C3)c21 [Compound 9]
≤ 50	≤ 50	≤ 50	≤ 50	CCn1nc(C)cc1C(=O)Nc1nc2cc(C(N)=O)cc(OC)c2n1C/C=C/Cn1c(NC(=O)c2ccnn2CC)nc2cc(C(N)=O)cc(OCCCN3CC4(CNCCO4)C3)c21 [Compound 14]
≤ 50	≤ 50	≤ 50	≤ 50	CCc1nc(C)sc1C(=O)Nc1nc2cc(C(N)=O)cc(OC)c2n1C/C=C/Cn1c(NC(=O)c2sc(C)nc2CC)nc2cc(C(N)=O)cc(OCCCN3CCC(c4nnc5n4CCNC5)CC3)c21 [Compound 44]
50 to 150	≤ 50	> 150	≤ 50	CCc1nc(C)oc1C(=O)Nc1nc2cc(C(N)=O)cc3c2n1C/C=C/Cn1c(NC(=O)c2cc(C)nn2CC)nc2cc(C(N)=O)cc(c21)OCC1(CNC1)CO3 [Compound 26, (3E)-7-[(4-ethyl-2-methyl-oxazole-5-carbonyl)amino]-25-[(2-ethyl-5-methyl-pyrazole-3-carbonyl)amino]spiro[14,18-dioxa-1,6,8,24-tetrazapentacyclo[17.6.1.16,9.023,26.013,27]heptacosa-3,7,9,11,13 (27), 19 (26), 20,22,24-nonaene-16,3′-azetidine]-11,21-dicarboxamide]
≤ 50	50 to 150	50 to 150	≤ 50	CCc1nc(C)oc1C(=O)Nc1nc2cc(C(N)=O)cc(OCCCN3CC4(C3)CN(C(=O)[C@H](N)CC(C)C)CCO4)c2n1C/C=C/Cn1c(NC(=O)c2cc(C)nn2CC)nc2cc(C(N)=O)cc(OC)c21 [Compound 20]
≤ 50	≤ 50	≤ 50	≤ 50	CCn1nc(C)cc1C(=O)Nc1nc2cc(C(N)=O)cc(OC)c2n1C/C=C/Cn1c(NC(=O)c2cc(C)nn2C)nc2cc(C(N)=O)cc(OCCCN3CC4(CNCCO4)C3)c21 [Compound 13]
